Tests used:
[1] = biological target: T1, HLA-DR1 (DRA*01:01/DRB1*01:01) (Homo sapiens, UniProt P01903+P01911, A100R/D57E/F55L/F60I/F76Y/I96L/L162R/M171V/P40L/Q125E/R42F/V115G/Y59C); test: FACS binding of biotinylated peptide to HLA-DR1 on HEK293T cells; settings: SA-PE, biotinylated peptide 30 µM, >5 h, 3 to 6 independent experiments
[2] = biological target: T1, HLA-DR1 (DRA*01:01/DRB1*01:01); test: FACS binding of biotinylated peptide to HLA-DR1 on stable 3T3 cells; settings: SA-PE, stable 3T3, DRA*01:01 + DRB1*01:01, biotinylated peptide 30 µM overnight
[3] = system: HLA-DR (DRB1*01:01, DRB1*04:05, DRB1*09:01, DRB1*15:01); test: FACS binding of biotinylated peptide to panel of HLA-DR on HEK293T cells; parameters: species or system human
[4] = system: HLA-DR (DRB1*01:01, DRB1*04:05, DRB1*09:01, DRB1*15:01); test: FACS binding of biotinylated peptide to panel of HLA-DR on stable 3T3 cells; parameters: species or system human; settings: SA-PE, […], biotinylated peptide 30 µM overnight
[5] = biological target: HLA-DR15 (DRA*01:01/DRB1*15:01) (Homo sapiens, UniProt P01903+P01911); test: FACS binding of biotinylated peptide to HLA-DR15 on HEK293T cells; settings: SA-PE, HEK293T transiently expressing DRA*01:01 + DRB1*15:01, biotinylated peptide 30 µM, 5 h (>5 h), 3 to 6 independent experiments
[6] = system: DR1 (DRB1*01:01) and DR4 (DRB1*04:01); settings: HLA-DRB1*01:01 and DRB1*04:01; ref [4], [5]; cited from earlier work
Description: An array of autoimmune diseases, including rheumatoid arthritis (RA) and multiple sclerosis (MS), are associated with particular alleles of HLA-DRB1[1], [3]. […] On ...

DR1 (DRB1*01:01) = biological target: T2, DR1 (DRB1*01:01) (Homo sapiens, UniProt P01903+P01911, A100R/D57E/F55L/F60I/F76Y/I96L/L162R/M171V/P40L/Q125E/R42F/V115G/Y59C); test: 96-well competition assay: inhibition of MBP83-99 loading to DR1-expressing 3T3 cells; format: binding
T2 construct: The open reading frame for DRA or DRB1 were flanked with Xho 1 and EcoR1 sites; expressed in transfected cells

DR15 (DRB1*15:01) = biological target: T3, DR15 (DRB1*15:01) (Homo sapiens, UniProt P01903+P01911, OTHER:DRA*01:01ANDEACHDRB1VECTORSWEREINTRODUCEDINTOTHECELLSAT1:1RATIO/OTHER:MBP83-99TODR15(DRB1*15:01)); test: 96-well competition assay: inhibition of MBP83-99 loading to DR15-expressing 3T3 cells; format: binding
T3 construct: The open reading frame for DRA or DRB1 were flanked with Xho 1 and EcoR1 sites; expressed in transfected cells

[7] = system: DR15-expressing 3T3 cells; settings: crystal violet (A550); 1 h with CLIP, then MBP83-99 6 h

Compound | Peptide binding (MFI), HLA-DR1 [1] | Peptide binding, DR1 on 3T3 [2] | Binding MFI compared with MBP83-99 [3] | Peptide binding across HLA-DR genotypes on 3T3 [4] | Peptide binding (MFI), HLA-DR15 [5] | Presentation by DR1 and DR4 [6] | IC50 (DR1 (DRB1*01:01)) [µM] | Kd (DR1 (DRB1*01:01)) [µM] | IC50 (DR15 (DRB1*15:01)) [µM] | Kd (DR15 (DRB1*15:01)) [µM] | Cell number after binding assay (cytotoxicity), DR1 cells (DR1-expressing 3T3 cells) | Cell number after binding assay (cytotoxicity), DR15 cells [7]
GIAGFKGEQGPKGEP [CII263-272, type II collagen (CII) 263–272, biotinylated type II collagen peptide] | Significant binding | very weakly | far less than that for MBP83-99 binding | not at all to other DR-expressing cells | Significant binding | present peptide from type II collagen |  |  |  |  |  | 
CSCC[C@H](NC(=O)[C@H](CCCNC(=N)N)NC(=O)[C@H](CCSC)NC(=O)[C@H](CCCCN)NC(=O)[C@H](CO)NC(=O)[C@@H](NC(=O)[C@@H]1CCCN1C(=O)[C@@H](N)CCCCN)C(C)C)C(=O)N[C@@H](C)C(=O)N[C@H](C(=O)N1CCC[C@H]1C(=O)N[C@@H](CC(C)C)C(=O)N[C@@H](CC(C)C)C(=O)N[C@@H](CCSC)C(=O)N[C@@H](CCC(N)=O)C(=O)N[C@@H](C)C(=O)N[C@@H](CC(C)C)C(=O)O)[C@@H](C)O [CLIP102-118, Class II-associated invariant chain peptide (CLIP) 102–118] |  |  |  |  |  |  | 8 | 5 | 9 | 3 | no difference in the cell number | no difference in the cell number
